The record followed here is US9615577B2, “Herbicidally active cyclic dione compounds, or derivatives therefor, substituted by a phenyl which has an alkynyl-containing substituent” (Syngenta Limited, priority 2012, dated 2017).

What all share (assay type): in vivo
The subject of assay [1] is Echinochloa crus-galli (ECHCG). In words: Test 1B glasshouse assay for herbicidal activity, post-emergence. The settings on record: Echinochloa crus-galli; for pest or weed control at 30 g/ha: 30 g/ha application rate; for pest or weed control at 125 g/ha: 125 g/ha application rate. As to the method: (§1) Seeds of a variety of monocotyledonous and dicotyledonous test plants are sown in standard soil in pots. The plants are cultivated for one day (for pre-emergence) or for about 12 days (range=10-13 days) (for post-emergence) under controlled conditions in a glasshouse (warm climate species at 24/18° C., cool climate species at 20/16° C., both at day/night; 16 hours light; 65% humidity).
(§2) An “instant formulation”, known as the “IF50”, containing 50 g/liter (i.e. 5% w/v) of the “technical” (i.e. unformulated) active ingredient is prepared by dissolving the active ingredient in a mixture of organic solvents and emulsifier, details of which are provided in the Table below. This IF50 is then mixed with a small, variable amount of acetone to aid dissolution, before addition of a 0.2% v/v aqueous solution of the adjuvant X-77 (which is a mixture of alkyl aryl polyoxyethylene glycols and free fatty acids in isopropanol, CAS Registry number 11097-66-8), as the aqueous diluent, to form an aqueous spray solution which contains a predetermined concentration of the active ingredient (which varies depending on the application rate of the active ingredient to the plants) and 0.2% v/v of the adjuvant X-77. This aqueous spray solution is then sprayed onto the plants, after one day's cultivation (for pre-emergence) or after about 12 days' cultivation (for post-emergence).
(§3) The test plants are then grown on, in a glasshouse (greenhouse) under controlled conditions (at either 24/18° C. or 20/16° C. (day/night) as mentioned above; 16 hours light; 65% humidity) and are watered twice daily. Either 15 days after application of the herbicide (15 DAA) (for post-emergence), or 20 days after application of the herbicide (20 DAA) (for pre-emergence), the test plants are evaluated visually, and an assessed percentage phytotoxicity score is given for each herbicidal application on each plant species (where 100%=total damage to plant; 0%=no damage to plant).
Warm climate (“warm season”) grassy monocotyledonous weeds: Setaria faberi (SETFA), SORVU (Sorghum bicolor (L.) Moench ssp. Bicolor, or Sorghum vulgare Pers.), Digitaria sanguinalis (DIGSA), Echinochloa crus-galli (ECHCG), and Brachiaria plantaginea (BRAPL).
Note: The herbicidal activity data (e.g. post-emergence) shown above in Biological Example 1B for Comparator compounds X-9 and X-10 is thought likely to have been measured some years ago, probably using a variant of the above-described test method. Also, for the post-emergence activity of X-9 and X-10 it is not currently known exactly how many days after application of the herbicide the phytotoxicity on the plants was measured.

Assay [2] has as its system Glycine max (GLXMA, soybean). As to the kind of experiment: Test 1B glasshouse assay for herbicidal activity, pre-emergence. The following applies: 480 h, 20 DAA, read-out: percentage phytotoxicity GLXMA. As to the method:
as §1, §2, §3
Warm climate crop plants: Glycine max (GLXMA, soybean).

Assay [3] has as its system Alopecurus myosuroides (ALOMY). Described as above. The following applies: 480 h, 20 DAA, read-out: percentage phytotoxicity ALOMY. Here is the method:
as §1, §2, §3
(§4) Cool climate (“cool season”) grassy monocotyledonous weeds: Alopecurus myosuroides (ALOMY), Avena fatua (AVEFA), Lolium perenne (LOLPE).

For assay [4], the system named is Avena fatua (AVEFA). The assay is described as above. The following applies: 480 h, 20 DAA, read-out: percentage phytotoxicity AVEFA. As to the method: as §1, §2, §3, §4
Assay [5] deals with Lolium perenne (LOLPE). The description is as above. The following applies: 480 h, 20 DAA, read-out: percentage phytotoxicity LOLPE. As to the method:
as §1, §2, §3, §4

The subject of assay [6] is Beta vulgaris (BEAVA, sugar beet). As to the kind of experiment: Test 1B glasshouse assay for herbicidal activity, post-emergence. The settings on record: 360 h; for plant injury at 30 g/ha: 30 g/ha application rate; for plant injury at 125 g/ha: 125 g/ha application rate. As to the method:
as §1, §2, §3
(§5) Cool climate crop plants: Triticum aestivum (TRZAW, winter wheat), Brassica napus (BRSNN, rape, also called oilseed rape or rapeseed), Beta vulgaris (BEAVA, sugar beet).

Assay [7] relates to Brassica napus (BRSNN, rape). Described as above. The following applies: 360 h; for plant injury at 30 g/ha: 30 g/ha application rate; for plant injury at 125 g/ha: 125 g/ha application rate. As to the method: as §1, §2, §3, §5
For assay [8], the system named is Triticum aestivum (TRZAW, winter wheat). The assay is described as above. The following applies: 360 h; for plant injury at 30 g/ha: 30 g/ha application rate; for plant injury at 125 g/ha: 125 g/ha application rate. As to the method: as §1, §2, §3, §5
The test system of assay [9] is Alopecurus myosuroides (ALOMY). The assay is described as above. The settings on record: 360 h; for pest or weed control at 30 g/ha: 30 g/ha application rate; for pest or weed control at 125 g/ha: 125 g/ha application rate. As to the method:
as §1, §2, §3, §4

For assay [10], the system named is Avena fatua (AVEFA). Described as above. The following applies: 360 h; for pest or weed control at 30 g/ha: 30 g/ha application rate; for pest or weed control at 125 g/ha: 125 g/ha application rate. As to the method: as §1, §2, §3, §4
The subject of assay [11] is Lolium perenne (LOLPE). The description is as above. The following applies: 360 h; for pest or weed control at 30 g/ha: 30 g/ha application rate; for pest or weed control at 125 g/ha: 125 g/ha application rate. As to the method:
as §1, §2, §3, §4

Assay [12] concerns Digitaria sanguinalis (DIGSA). In words: Test 1B glasshouse assay for herbicidal activity, pre-emergence. The settings on record: 480 h, 20 DAA, read-out: percentage phytotoxicity DIGSA. In outline: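 Pots sown in standard soil; IF50 formulation diluted in 0.2% v/v X-77 and sprayed 1 day after sowing (pre-emergence) or ~12 days (post-emergence). Glasshouse at 24/18 or 20/16 °C, 16 h light, 65% humidity. Visual % phytotoxicity (0–100) scored 20 DAA pre-emergence, 15 DAA post-emergence.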

Assay [13] relates to Alopecurus myosuroides (ALOMY). In words: Biological Example 2 comparative herbicidal data, post-emergence glasshouse screen. The settings on record: 312 h, read-out: Post-emergence herbicidal activities (percentage phytotoxicity) ALOMY; for pest or weed control at 8 g/ha: 8 g/ha application rate; for pest or weed control at 30 g/ha: 30 g/ha application rate. The method, boiled down: (§6)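 Plants grown 8 days in a glasshouse (24/16°C day/night, 14 h light, 65% humidity) were sprayed with compound in acetone/water (50:50) containing 0.5% Tween 20. They were kept under the same conditions and watered twice daily. Phytotoxicity was scored visually after 13 days (0 = no damage, 100 = total damage).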

In the next assay the test system is Setaria faberi (SETFA). The description is as above. The following applies: 312 h, read-out: Post-emergence herbicidal activities (percentage phytotoxicity) SETFA; for pest or weed control at 8 g/ha: 8 g/ha application rate; for pest or weed control at 30 g/ha: 30 g/ha application rate. In outline: as §6

Consider `CC#Cc1ccc(C2C(=O)C3CCC(C3)C2=O)c(C)c1` (single isomer, unassigned) [Compound A-2], for which the pest or weed control at 60 g/ha in assay [1] (60 g/ha application rate) turned out to be 100%; in assay [9] (60 g/ha application rate), 90%; in the assay on Avena fatua (AVEFA) [10] (60 g/ha application rate) it was 80%; in the assay on Lolium perenne (LOLPE) [11] (60 g/ha application rate), 80%. Moreover, in assay [2] (500 g/ha), the plant injury at 500 g/ha stood at 0%. Further, the pest or weed control at 500 g/ha in assay [3] (500 g/ha) stood at 100%; in the assay on Avena fatua (AVEFA) [4] (500 g/ha), 80%; in the assay with Lolium perenne (LOLPE) [5] (500 g/ha) it was 100%; in [12] (500 g/ha) it was 100%. The plant injury at 60 g/ha in [6] (60 g/ha application rate) is 10%; in [7] (60 g/ha application rate), 70%; in [8] (60 g/ha application rate), 80%.
With `Cc1cc(C#CCl)cc(C)c1C1C(=O)CC(CC2CCOCC2)CC1=O` (stereo not shown) [Compound A-8], the pest or weed control at 30 g/ha in assay [1] was found to be 100%; in assay [9] it was 80%; in the assay on Avena fatua (AVEFA) [10], 70%; with Lolium perenne (LOLPE) [11], 40%. For the same compound, the values for the pest or weed control at 15.625 g/ha (in assay [13] (15.625 g/ha application rate); in the assay on Setaria faberi (SETFA) (15.625 g/ha application rate)) were 70% and 80%, respectively. Also, the pest or weed control at 62.5 g/ha in assay [13] (62.5 g/ha application rate) came to 80%; in the assay with Setaria faberi (SETFA) (62.5 g/ha application rate) it was 90%. Moreover, the values for the plant injury at 30 g/ha in assay [6], in [7] and in assay [8] were 30%, 70% and 50%, respectively.
On to `CC#Cc1cc(C)c(C2C(=O)C3CCC(C3)C2=O)c(OC)c1` (stereo not shown) [Compound A-10], for which the pest or weed control at 30 g/ha in assay [1] amounted to 90%; in assay [9], 60%; in the assay with Avena fatua (AVEFA) [10] it was 20%; in the assay with Lolium perenne (LOLPE) [11], 30%. The pest or weed control at 125 g/ha in [1] came to 100%; in assay [3] it was 80%; in the assay on Avena fatua (AVEFA) [4], 60%; with Lolium perenne (LOLPE) [5] it was 100%; in assay [9], 100%; in the assay with Avena fatua (AVEFA) [10], 40%. The figures for the pest or weed control at 125 g/ha (with Lolium perenne (LOLPE) [11]; in [12]) were 80% and 90%, respectively. Also, the plant injury at 125 g/ha in [2] was determined as 0%; in assay [6], 20%; in [7] it was 60%; in assay [8], 80%. The plant injury at 30 g/ha amounted to 20% in assay [6], 40% in assay [7] and 60% in [8].
With `CC#Cc1cc(C)c(C2=C(OC(=O)OC)CC(c3ccccn3)CC2=O)c(C)c1` (stereo not shown) [Compound A-14], the pest or weed control at 30 g/ha in assay [1] was found to be 80%; in [9] it was 70%; in the assay on Avena fatua (AVEFA) [10], 20%; in the assay on Lolium perenne (LOLPE) [11] it was 70%. Besides, the pest or weed control at 125 g/ha amounted to 100% in assay [1], 80% in [9], 60% in the assay on Avena fatua (AVEFA) [10] and 80% in the assay with Lolium perenne (LOLPE) [11]. For the same compound, the plant injury at 250 g/ha in assay [2] (250 g/ha) stood at 20%. For the same compound, the pest or weed control at 250 g/ha in assay [3] (250 g/ha) was found to be 80%; with Avena fatua (AVEFA) [4] (250 g/ha) it was 70%; in the assay with Lolium perenne (LOLPE) [5] (250 g/ha) it was 100%; in assay [12] (250 g/ha) it was 100%. Also, the plant injury at 30 g/ha in assay [6] is 30%; in assay [7], 60%; in [8], 60%. For the same compound, the plant injury at 125 g/ha was 40% in [6], 70% in [7] and 80% in assay [8].
`CC#Cc1cc(C)c(C2=C(OC(C)=O)CC(c3ccccn3)CC2=O)c(C)c1` (stereo not shown) [Compound A-15]: the pest or weed control at 30 g/ha in [1] was determined as 80%; in assay [9], 70%; with Avena fatua (AVEFA) [10], 60%; with Lolium perenne (LOLPE) [11], 80%. Also, the pest or weed control at 125 g/ha in assay [1] is 100%; in [3], 80%; in the assay with Avena fatua (AVEFA) [4], 50%; with Lolium perenne (LOLPE) [5], 90%; in assay [9], 80%; in the assay with Avena fatua (AVEFA) [10], 80%. Besides, the pest or weed control at 125 g/ha with Lolium perenne (LOLPE) [11] was 90%; in [12] it was 100%. Moreover, the plant injury at 125 g/ha in assay [2] came out at 10%; in assay [6] it was 30%; in [7], 70%; in assay [8], 80%. The plant injury at 30 g/ha in assay [6] is 30%; in assay [7] it was 60%; in assay [8] it was 70%.
Take `CC#Cc1cc(Cl)c(C2C(=O)CC3(CCOCC3)CC2=O)c(OC)c1` [Compound A-20, 9-(2-Chloro-6-methoxy-4-prop-1-ynyl-phenyl)-3-oxa-spiro[5.5]undecane-8,10-dione]: in assay [13], the pest or weed control at 8 g/ha turned out to be 90% and the pest or weed control at 30 g/ha is 100%. In the assay with Setaria faberi (SETFA), the pest or weed control at 8 g/ha came to 90% and the pest or weed control at 30 g/ha was 100%.
On to `CC#Cc1cc(C)c(C2C(=O)CC(CCSC)CC2=O)c(C)c1` (stereo not shown) [Compound A-21, 2-(2,6-Dimethyl-4-prop-1-ynyl-phenyl)-5-(2-methylsulfanyl-ethyl)cyclohexane-1,3-dione], for which, in [13], the pest or weed control at 8 g/ha is 50% and the pest or weed control at 30 g/ha amounted to 50%. Besides, in the assay with Setaria faberi (SETFA), the pest or weed control at 8 g/ha was 50% and the pest or weed control at 30 g/ha stood at 70%.
